According to patent publication US10912814B2, “Combination formulation of three antiviral compounds” (priority 2016, dated 2021):

Test: Storage stability: appearance, assay/label strength (LS), total impurities/degradation products
Assay type: physicochemical
Details: for I/D (%): tablets, desiccant study
Protocol: In some embodiments, the film-coated tablets were packaged in 75 and 100 mL white HDPE bottles (Lots A and B, respectively, as described in Tables 11A, 11B) with 1 g silica gel desiccant canisters and a polyester fiber coil. The 75 and 100 mL HDPE bottles contained fourteen and twenty eight tablets, respectively. Each HDPE bottle was capped using a white, continuous thread, child-resistant polypropylene screw cap with an […], aluminum-faced line. The packaged tablets (14 and 28 counts) were evaluated for stability at 40° C./75% RH and 25° C./60% RH. Additionally, the 14-count bottles (without cap) were evaluated for stability under open conditions at 40° C./75% RH.
For each of the impact studies, the sofosbuvir/velpatasvir SSD/voxilaprevir SSD tablets were packaged in a designated commercial packaging configuration (28-count, 100 mL HPDE bottle, coil, 1 g desiccant), and stored for 12 weeks at 25° C./60% RH and 40° C./75% RH. Tablets were also packaged in open containers (28-count, 100 mL HPDE bottle without cap) and stored for 4 weeks at 40° C./75% RH and for 1 week at 50° C./92% RH.
The sofosbuvir/velpatasvir SSD/voxilaprevir SSD tablets were packaged in the designated commercial packaging configuration (28-count, 100 mL HPDE bottle, coil, 1 g desiccant), and stored for 6 months at 25° C./60% RH and 40° C./75% RH.

CC(C)OC(=O)C(C)N[P@](=O)(OC[C@H]1O[C@@H](n2ccc(=O)[nH]c2=O)[C@](C)(F)[C@@H]1O)Oc1ccccc1 (stereo in doubt) [Sofosbuvir, (S)-isopropyl 2-(((S)-(((2R,3R,4R,5R)-5-(2,4-dioxo-3,4-dihydropyrimidin-1(2H)-yl)-4-fluoro-3-hydroxy-4-methyltetrahydrofuran-2-yl)methoxy)(phenoxy)phosphoryl)amino)propanoate]
0.0%: Total Imp./Deg. (%) (Batch C tablets, closed 1 g desiccant, 25° C./60% RH, 3 months) | Total Imp./Deg. (%) (Batch C tablets, closed 1 g desiccant, 25° C./60% RH, 6 months) | Total Imp./Deg. (%) (Batch C tablets, closed 1 g desiccant, 30° C./75% RH, 3 months) | Total Imp./Deg. (%) (Batch C tablets, closed 1 g desiccant, 30° C./75% RH, 6 months) | Total Imp./Deg. (%) (Batch C tablets, closed 1 g desiccant, 40° C./75% RH, 1 month) | Total Imp./Deg. (%) (Batch C tablets, closed 1 g desiccant, 40° C./75% RH, 3 months) | Total Imp./Deg. (%) (Batch C tablets, closed 1 g desiccant, 40° C./75% RH, 6 months) | Total Imp./Deg. (%) (Batch C tablets, closed 1 g desiccant, Initial, time 0) | Total Imp./Deg. Products (%) (SOF/VEL SSD/VOX SSD granules (Lot F), glass vials, Initial, 0 months) | total impurities/degradation products (desiccant/packaging study tablets, all conditions, 6 months) | total impurities/degradation products (granules (Lot F), over 6 month storage at 25° C./60% RH and 40° C./75% RH, open and closed) | total impurities/degradation products (packaged Formulation G tablets (Tables 11A, 11B), 40° C./75% RH and 25° C./60% RH for 6 months) | total impurities/degradation products (packaged tablets Batch A, up to 6 months under all conditions) | total impurities/degradation products (packaged tablets Batch D, up to 1 month under all conditions) | total impurities/degradation products (packaged tablets Batches B and C, up to 6 months under all conditions) | total impurities/degradation products (tablet Lots A-D from sub-potent/super-potent VEL SSD and VOX SSD, all conditions) | Total Imp./Deg. (%) (tablets Batch A, 25° C./60% RH, 3 mo) | Total Imp./Deg. (%) (tablets Batch A, 25° C./60% RH, 6 mo) | Total Imp./Deg. (%) (tablets Batch A, 30° C./75% RH, 3 mo) | Total Imp./Deg. (%) (tablets Batch A, 30° C./75% RH, 6 mo) | Total Imp./Deg. (%) (tablets Batch A, 40° C./75% RH, 1 mo) | Total Imp./Deg. (%) (tablets Batch A, 40° C./75% RH, 3 mo) | Total Imp./Deg. (%) (tablets Batch A, 40° C./75% RH, 6 mo) | Total Imp./Deg. (%) (tablets Batch A, Initial, 0 mo) | Total Imp./Deg. (%) (tablets Batch B, 25° C./60% RH, 3 mo) | Total Imp./Deg. (%) (tablets Batch B, 25° C./60% RH, 6 mo) | Total Imp./Deg. (%) (tablets Batch B, 30° C./75% RH, 3 mo) | Total Imp./Deg. (%) (tablets Batch B, 30° C./75% RH, 6 mo) | Total Imp./Deg. (%) (tablets Batch B, 40° C./75% RH, 1 mo) | Total Imp./Deg. (%) (tablets Batch B, 40° C./75% RH, 3 mo) | Total Imp./Deg. (%) (tablets Batch B, 40° C./75% RH, 6 mo) | Total Imp./Deg. (%) (tablets Batch B, Initial, 0 mo) | Total Imp./Deg. (%) (tablets Batch D, 40° C./75% RH, 1 mo) | Total Imp./Deg. (%) (tablets Batch D, Initial, 0 mo) | Total Imp./Deg. (%) (tablets Lot A, 25° C./60% RH Closed, 1 mo) | Total Imp./Deg. (%) (tablets Lot A, 25° C./60% RH Closed, 3 mo) | Total Imp./Deg. (%) (tablets Lot A, 25° C./60% RH Closed, 6 mo) | Total Imp./Deg. (%) (tablets Lot A, 40° C./75% RH Closed, 1 mo) | Total Imp./Deg. (%) (tablets Lot A, 40° C./75% RH Closed, 3 mo) | Total Imp./Deg. (%) (tablets Lot A, 40° C./75% RH Closed, 6 mo) | Total Imp./Deg. (%) (tablets Lot A, 40° C./75% RH Open, 1 mo) | Total Imp./Deg. (%) (tablets Lot A, 40° C./75% RH Open, 3 mo) | Total Imp./Deg. (%) (tablets Lot A, 40° C./75% RH Open, 6 mo) | Total Imp./Deg. (%) (tablets Lot A, Initial, 0 mo) | Total Imp./Deg. (%) (tablets Lot B, 25° C./60% RH Closed, 1 mo) | Total Imp./Deg. (%) (tablets Lot B, 25° C./60% RH Closed, 3 mo) | Total Imp./Deg. (%) (tablets Lot B, 25° C./60% RH Closed, 6 mo) | Total Imp./Deg. (%) (tablets Lot B, 40° C./75% RH Closed, 1 mo) | Total Imp./Deg. (%) (tablets Lot B, 40° C./75% RH Closed, 3 mo) | Total Imp./Deg. (%) (tablets Lot B, 40° C./75% RH Closed, 6 mo) | Total Imp./Deg. (%) (tablets Lot B, Initial, 0 mo) | total impurities/degradation products (tablets from SSDs made with high-peroxide copovidone (544 ppm VEL SSD, 655 ppm VOX SSD)) | Total Imp./Deg. (%) (tablets from VEL SSD 7.0% / VOX SSD 3.2% water content, Initial, time 0) | Total Imp./Deg. (%) (tablets from VEL SSD 7.0% / VOX SSD 3.2% water content, closed, 1 g desiccant, 25° C./60% RH, 12 weeks) | Total Imp./Deg. (%) (tablets from VEL SSD 7.0% / VOX SSD 3.2% water content, closed, 1 g desiccant, 40° C./75% RH, 4 weeks) | Total Imp./Deg. (%) (tablets from VEL SSD 7.0% / VOX SSD 3.2% water content, closed, 1 g desiccant, 40° C./75% RH, 12 weeks) | Total Imp./Deg. (%) (tablets from VEL SSD 7.0% / VOX SSD 3.2% water content, open, no desiccant, 40° C./75% RH, 4 weeks) | total impurities/degradation products (tablets from VEL SSD with 6.0% residual ethanol and VOX SSD with 2.1% residual acetone, all conditions) | total impurities/degradation products (tablets from VEL SSD with 7.0% and VOX SSD with 3.2% water content, all conditions) | Total Imp./Deg. (%) (tablets from copovidone with 544 ppm (VEL SSD) / 655 ppm (VOX SSD) peroxides, Initial, time 0) | Total Imp./Deg. (%) (tablets from copovidone with 544 ppm (VEL SSD) / 655 ppm (VOX SSD) peroxides, closed, 1 g desiccant, 25° C./60% RH, 12 weeks) | Total Imp./Deg. (%) (tablets from copovidone with 544 ppm (VEL SSD) / 655 ppm (VOX SSD) peroxides, closed, 1 g desiccant, 40° C./75% RH, 4 weeks) | Total Imp./Deg. (%) (tablets from copovidone with 544 ppm (VEL SSD) / 655 ppm (VOX SSD) peroxides, closed, 1 g desiccant, 40° C./75% RH, 12 weeks) | Total Imp./Deg. (%) (tablets from copovidone with 544 ppm (VEL SSD) / 655 ppm (VOX SSD) peroxides, open, no desiccant, 40° C./75% RH, 4 weeks) | I/D (%) (closed, 1 g desiccant, 25° C./60% RH, 12 weeks) | I/D (%) (closed, 1 g desiccant, 25° C./60% RH, 24 weeks) | I/D (%) (closed, 1 g desiccant, 40° C./75% RH, 4 weeks) | I/D (%) (closed, 1 g desiccant, 40° C./75% RH, 12 weeks) | I/D (%) (closed, 1 g desiccant, 40° C./75% RH, 24 weeks) | I/D (%) (closed, no desiccant, 25° C./60% RH, 12 weeks) | I/D (%) (closed, no desiccant, 25° C./60% RH, 24 weeks) | I/D (%) (closed, no desiccant, 40° C./75% RH, 4 weeks) | I/D (%) (closed, no desiccant, 40° C./75% RH, 12 weeks) | I/D (%) (closed, no desiccant, 40° C./75% RH, 24 weeks)
